Test [1] deals with T1, CAAX prenyl protease 2 (Saccharomyces cerevisiae S288c, UniProt Q03530).
T1 sequence (Q03530 whole entry): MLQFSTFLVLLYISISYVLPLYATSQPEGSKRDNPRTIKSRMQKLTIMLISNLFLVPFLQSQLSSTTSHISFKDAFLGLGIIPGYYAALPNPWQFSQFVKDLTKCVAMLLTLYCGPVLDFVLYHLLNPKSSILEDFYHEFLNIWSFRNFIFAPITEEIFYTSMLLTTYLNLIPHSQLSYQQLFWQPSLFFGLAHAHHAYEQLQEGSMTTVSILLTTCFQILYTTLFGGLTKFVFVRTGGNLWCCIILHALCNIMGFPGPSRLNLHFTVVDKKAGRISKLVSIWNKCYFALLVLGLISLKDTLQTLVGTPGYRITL
It is filed as biochemical.

Test [2] deals with Trypsin (Sus scrofa, UniProt P00761). The test can be described thus: trypsin protease activity blockade – biochemical, quenched peptide fluorescence, cherry-pick, selectivity assay for Rce1 protease inhibitor project, dose response (AID 488789).
Test [3] deals with T2, Cytochrome P450 1A2 (Homo sapiens, UniProt P05177).
T2 sequence (P05177 whole entry): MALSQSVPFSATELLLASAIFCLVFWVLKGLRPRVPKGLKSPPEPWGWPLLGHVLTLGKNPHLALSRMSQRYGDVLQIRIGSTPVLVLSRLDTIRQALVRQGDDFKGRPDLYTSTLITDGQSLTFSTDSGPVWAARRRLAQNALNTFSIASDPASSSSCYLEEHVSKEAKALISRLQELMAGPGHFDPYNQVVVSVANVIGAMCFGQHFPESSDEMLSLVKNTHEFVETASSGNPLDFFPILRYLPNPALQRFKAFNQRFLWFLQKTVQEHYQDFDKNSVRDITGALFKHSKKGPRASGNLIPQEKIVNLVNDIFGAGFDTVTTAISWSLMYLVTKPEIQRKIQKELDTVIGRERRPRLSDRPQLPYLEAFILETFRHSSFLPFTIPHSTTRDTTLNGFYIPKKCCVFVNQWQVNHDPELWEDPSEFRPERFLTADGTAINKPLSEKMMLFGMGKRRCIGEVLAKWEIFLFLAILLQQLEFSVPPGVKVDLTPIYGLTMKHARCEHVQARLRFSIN

Test [4] deals with T3, CAAX prenyl protease 2 (Homo sapiens, UniProt Q9Y256).
T3 sequence (Q9Y256 whole entry): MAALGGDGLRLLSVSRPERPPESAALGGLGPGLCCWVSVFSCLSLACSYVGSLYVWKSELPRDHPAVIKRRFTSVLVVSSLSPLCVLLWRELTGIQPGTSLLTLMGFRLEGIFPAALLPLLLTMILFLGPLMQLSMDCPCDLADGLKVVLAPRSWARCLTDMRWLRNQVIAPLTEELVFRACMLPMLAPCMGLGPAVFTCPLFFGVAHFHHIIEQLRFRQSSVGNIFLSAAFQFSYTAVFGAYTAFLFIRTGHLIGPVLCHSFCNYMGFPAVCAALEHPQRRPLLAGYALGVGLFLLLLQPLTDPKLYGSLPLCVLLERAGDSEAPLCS
The test can be described thus: inhibition of Ras-converting CAAX endoprotease – biochemical, plate reader, dry powder samples, dose response (AID 588848).

The target of test [5] is T1, CAAX prenyl protease 2. The test can be described thus: inhibition of Rce1p peptide cleavage – biochemical, plate reader, dry powder retest, dose response (AID 588851).
Test [6] in a line: microbe, parasite or virus in culture. It is filed as functional. Particulars: Mycobacterium tuberculosis.
Test [7] has as its target T4, Heat shock factor protein 1 (Mus musculus, UniProt P38532).
T4 sequence (P38532 whole entry): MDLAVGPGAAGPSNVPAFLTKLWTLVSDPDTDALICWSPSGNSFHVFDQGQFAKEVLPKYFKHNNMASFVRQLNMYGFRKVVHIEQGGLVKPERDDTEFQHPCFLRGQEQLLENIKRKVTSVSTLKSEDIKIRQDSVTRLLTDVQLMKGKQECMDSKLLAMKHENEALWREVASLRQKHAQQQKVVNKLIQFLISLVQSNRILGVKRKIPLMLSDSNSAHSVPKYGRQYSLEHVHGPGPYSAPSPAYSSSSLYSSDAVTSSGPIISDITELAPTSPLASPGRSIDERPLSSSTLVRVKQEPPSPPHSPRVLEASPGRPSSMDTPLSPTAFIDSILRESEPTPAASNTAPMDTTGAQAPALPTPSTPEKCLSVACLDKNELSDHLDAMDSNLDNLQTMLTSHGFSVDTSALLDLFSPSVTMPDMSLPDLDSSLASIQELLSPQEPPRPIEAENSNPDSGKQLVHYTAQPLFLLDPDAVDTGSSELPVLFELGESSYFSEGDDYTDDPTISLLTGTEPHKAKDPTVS
The test can be described thus: decrease of HSF1-responsive luciferase luminescence – cell-based, NIH3T3, dose retest, confirmation (AID 2382).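 Further: NIH3T3 fibroblasts with HSF1-driven luciferase reporter stressed by proteasome inhibitor MG132; luminescence from HSF1-driven luciferase expression after 8 hours of MG132 stress.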 The class given is functional.

Test [8] addresses Beta Lactamase (Pseudomonas aeruginosa, UniProt Q932Y6). The test can be described thus: BLA reporter interference, concentration series – BLA reporter cells, FRET fluorescence, artefact control for TLR9-MyD88 binding inhibitor project, dose response (AID 588341).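 Further: cell based assay in CHO-K1 cells stably expressing beta-lactamase.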 It is filed as cell-based.
Test [9] in a line: viability loss of HPDE-C7K cells – cell-based, fluorescence, HTS, primary screen (AID 431). It is filed as functional. Particulars: Homo sapiens.
A short description of test [10]: reduction of Shn3 3'UTR-driven luciferase in osteoblasts – cell-based, Clone20 osteoblasts, firefly luciferase, cherry-picked, dose response (AID 624132).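 Further: firefly luciferase luminescence from reporter carrying the Shn3 3'UTR in osteoblasts.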 It is filed as functional.
Test [11] can be described thus: loss of viability in HepG2 cells – cell-based, CellTiter-Glo, cherry-picked, cytotoxicity control for Shn3 inhibitor project, dose response (AID 624134). The class given is functional. (Cellular ATP, detected with luciferase, serves as a proxy for viable cell number.)
Test [12] is described as follows: NIH3T3 cell viability loss – ATP luminescence, mouse fibroblasts, counter-screen, dose response (AID 2010).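 Further: cells exposed to compound for about 90 hours before reading.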 It is filed as functional, cell-based. (The purpose of a counterscreen is to sort out artefacts and off-target activity.)
Test [13] concerns the target DNA damage-inducible transcript 3 protein (Mus musculus, UniProt P35639). The class given is functional, Cricetulus griseus.
Test [14] in a line: non-specific 3'UTR reporter inhibition in Clone20-Shn3RL – cell-based, Renilla luciferase, cherry-picked, counter-screen for Shn3 inhibitor project, dose response (AID 624133). It is filed as functional.
Test [15] has as its target Sphingosine 1-phosphate receptor 1 (Homo sapiens, UniProt P21453). The class given is functional.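 Further: Tango beta-arrestin reporter U2OS cells stimulated with S1P near its EC80; inhibitor potency meaning antagonism of receptor activation by the natural agonist.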
In test [16] the target is T5, Protein RecA (Mycobacterium tuberculosis, UniProt P9WHJ3).
T5 sequence (P9WHJ3 whole entry): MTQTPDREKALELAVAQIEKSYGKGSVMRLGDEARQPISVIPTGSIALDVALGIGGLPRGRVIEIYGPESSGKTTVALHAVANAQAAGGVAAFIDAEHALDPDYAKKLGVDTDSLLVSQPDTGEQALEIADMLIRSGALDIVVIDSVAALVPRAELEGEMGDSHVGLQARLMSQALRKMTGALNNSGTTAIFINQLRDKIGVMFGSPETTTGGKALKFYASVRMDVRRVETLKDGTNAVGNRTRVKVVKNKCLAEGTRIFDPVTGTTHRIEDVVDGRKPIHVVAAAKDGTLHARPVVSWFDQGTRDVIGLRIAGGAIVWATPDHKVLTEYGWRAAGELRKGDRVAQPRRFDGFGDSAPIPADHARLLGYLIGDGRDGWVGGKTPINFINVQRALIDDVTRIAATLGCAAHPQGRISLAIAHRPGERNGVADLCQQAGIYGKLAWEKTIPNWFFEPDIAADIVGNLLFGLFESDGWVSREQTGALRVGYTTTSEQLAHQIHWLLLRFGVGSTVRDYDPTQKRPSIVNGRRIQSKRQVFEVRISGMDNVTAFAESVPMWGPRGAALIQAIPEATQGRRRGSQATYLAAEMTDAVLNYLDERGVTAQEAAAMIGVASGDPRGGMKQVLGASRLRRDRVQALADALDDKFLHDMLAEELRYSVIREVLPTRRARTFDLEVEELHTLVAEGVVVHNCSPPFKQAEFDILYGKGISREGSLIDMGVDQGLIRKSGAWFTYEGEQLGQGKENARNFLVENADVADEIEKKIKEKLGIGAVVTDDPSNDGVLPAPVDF
The test can be described thus: Fluorescence Cell-Free Homogeneous Dose Retest to Identify Inhibitors of RecA-Intein Splicing Activity. [Related pubchem assays (depositor defined):AID2097, AID2223, AID489010, AID492950]. It is filed as functional.

Test [17] concerns CHO. The test can be described thus: CHO cell viability loss, potency – luminescence, cytotoxicity control for TLR9-MyD88 binding inhibitor project, dose response (AID 588339).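 Further: CHO cells stably coexpressing TLR9 and MyD88 fusions from primary screen; compound exposure lasted 48 hours before viability readout.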 It is filed as functional, cell-based, hamster. Particulars: Cricetulus griseus.
A short description of test [18]: HPDE-C7 pancreatic duct cell viability loss – fluorescence, HTS (AID 430). The class given is functional, cell-based. The conditions noted are these: Homo sapiens.
The nature of test [19]: Trypanosoma cruzi growth suppression in host cells – NIH3T3 host cells, beta-gal luminescence, confirmation (AID 2044).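 Further: intracellular parasites grown in NIH/3T3 mouse fibroblasts as host cells; luminescent beta-galactosidase reporter signal from transgenic T. cruzi replicating inside host cells; inhibitors lower the luminescence signal.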 It is filed as functional, cell-based.
Test [20] concerns the target Sphingosine 1-phosphate receptor 4 (Homo sapiens, UniProt O95977). The test can be described thus: Fluorescence dose response cell-based high throughput screening assay for antagonists of the Sphingosine 1-Phosphate Receptor 4 (S1P4). [Related pubchem assays: 1524 (Confirmation in triplicates.), 1510 (Primary screen.)]. It is filed as functional.
Test [21] deals with T6, Replicative DNA helicase DnaB (Mycobacterium tuberculosis, UniProt P9WMR3).
T6 sequence (P9WMR3 whole entry): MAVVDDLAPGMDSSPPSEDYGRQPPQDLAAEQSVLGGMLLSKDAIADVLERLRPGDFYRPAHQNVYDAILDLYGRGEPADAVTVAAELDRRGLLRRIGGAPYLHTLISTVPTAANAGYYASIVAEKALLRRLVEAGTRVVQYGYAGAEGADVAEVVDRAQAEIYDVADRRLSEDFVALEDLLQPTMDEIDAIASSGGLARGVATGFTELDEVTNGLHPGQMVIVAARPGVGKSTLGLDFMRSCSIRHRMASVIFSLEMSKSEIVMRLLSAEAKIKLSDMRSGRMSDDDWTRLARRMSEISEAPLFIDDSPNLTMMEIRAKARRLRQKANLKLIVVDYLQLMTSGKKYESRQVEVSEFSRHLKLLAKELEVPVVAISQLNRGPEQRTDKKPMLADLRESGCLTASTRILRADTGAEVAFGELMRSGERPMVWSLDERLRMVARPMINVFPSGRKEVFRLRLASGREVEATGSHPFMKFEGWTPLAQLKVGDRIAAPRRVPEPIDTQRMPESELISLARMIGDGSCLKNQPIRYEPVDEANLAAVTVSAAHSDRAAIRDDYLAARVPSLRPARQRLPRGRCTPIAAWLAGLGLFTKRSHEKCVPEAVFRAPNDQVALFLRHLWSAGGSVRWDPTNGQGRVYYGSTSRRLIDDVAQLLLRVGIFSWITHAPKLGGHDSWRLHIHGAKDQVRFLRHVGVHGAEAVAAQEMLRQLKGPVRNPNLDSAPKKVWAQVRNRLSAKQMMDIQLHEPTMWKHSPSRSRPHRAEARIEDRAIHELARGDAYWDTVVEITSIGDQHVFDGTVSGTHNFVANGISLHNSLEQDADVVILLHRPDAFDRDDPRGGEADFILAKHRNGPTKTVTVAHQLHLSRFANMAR
The test can be described thus: DnaB intein splicing inhibitors, dose response, biochemical, cell-free fluorescence (AID 449749). The class given is functional.

The target of test [22] is DNA dC->dU-editing enzyme APOBEC-3G (Homo sapiens, UniProt Q9HC16). The test can be described thus: inhibition of APOBEC3G ssDNA deamination – biochemical, fluorescence, single-stranded DNA substrate, SAR follow-up (AID 602136). It is filed as functional. The conditions noted are these: read-out: IC50_Mean.
In test [23] the target is DNA dC->dU-editing enzyme APOBEC-3A (Homo sapiens, UniProt P31941). The test can be described thus: SAR analysis of small molecule inhibitors of APOBEC3A DNA Deaminase via a fluorescence-based single-stranded DNA deaminase assay. It is filed as functional. The conditions noted are these: read-out: IC50_Mean.
Test [24] concerns the target Botulinum neurotoxin type A (Clostridium botulinum (strain Hall / ATCC 3502 / NCTC 13319 / Type A), UniProt P0DPI1). The test can be described thus: High-throughput multiplex microsphere dose response for inhibitors of toxin protease, specifically Botulinum neurotoxin light chain A protease, compounds from Cherry Pick 01. The class given is functional. Particulars: read-out: EC50_MICROM.

Test [25] has as its target Protein disulfide-isomerase (Homo sapiens, UniProt P07237). The test can be described thus: inhibition of PDI-driven insulin aggregation – biochemical, turbidity, absorbance, cherry-picked samples, dose response (AID 602350). The class given is functional.

This is an account of results in ChEMBL document CHEMBL1201862, “PubChem BioAssay data set” (2004).

Calls of active or inactive are those of the source.

DNA dC->dU-editing enzyme APOBEC-3G, sequence (Q9HC16 whole entry): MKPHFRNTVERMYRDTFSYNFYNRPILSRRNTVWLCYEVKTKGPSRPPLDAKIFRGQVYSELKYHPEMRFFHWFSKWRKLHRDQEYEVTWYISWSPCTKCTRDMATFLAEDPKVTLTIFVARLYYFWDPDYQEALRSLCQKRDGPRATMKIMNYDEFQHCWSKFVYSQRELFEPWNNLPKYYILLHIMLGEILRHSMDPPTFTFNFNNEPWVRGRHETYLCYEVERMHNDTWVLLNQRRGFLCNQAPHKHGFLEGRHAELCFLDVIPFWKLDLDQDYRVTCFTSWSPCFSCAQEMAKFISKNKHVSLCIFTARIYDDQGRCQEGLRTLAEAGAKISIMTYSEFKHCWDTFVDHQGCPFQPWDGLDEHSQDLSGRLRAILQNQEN
DNA damage-inducible transcript 3 protein, sequence (P35639 whole entry): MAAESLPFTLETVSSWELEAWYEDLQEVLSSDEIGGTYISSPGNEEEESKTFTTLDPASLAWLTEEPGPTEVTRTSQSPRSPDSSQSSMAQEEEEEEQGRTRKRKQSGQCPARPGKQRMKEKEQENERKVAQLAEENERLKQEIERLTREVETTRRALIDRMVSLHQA
Beta Lactamase, sequence (Q932Y6 whole entry): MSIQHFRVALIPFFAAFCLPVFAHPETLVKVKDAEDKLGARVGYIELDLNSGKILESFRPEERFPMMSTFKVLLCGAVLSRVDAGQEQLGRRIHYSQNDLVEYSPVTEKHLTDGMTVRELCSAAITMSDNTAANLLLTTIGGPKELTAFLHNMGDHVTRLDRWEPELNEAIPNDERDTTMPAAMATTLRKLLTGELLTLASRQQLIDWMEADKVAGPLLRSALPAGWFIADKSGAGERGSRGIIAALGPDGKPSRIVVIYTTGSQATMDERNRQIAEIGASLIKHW
Protein disulfide-isomerase, sequence (P07237 whole entry): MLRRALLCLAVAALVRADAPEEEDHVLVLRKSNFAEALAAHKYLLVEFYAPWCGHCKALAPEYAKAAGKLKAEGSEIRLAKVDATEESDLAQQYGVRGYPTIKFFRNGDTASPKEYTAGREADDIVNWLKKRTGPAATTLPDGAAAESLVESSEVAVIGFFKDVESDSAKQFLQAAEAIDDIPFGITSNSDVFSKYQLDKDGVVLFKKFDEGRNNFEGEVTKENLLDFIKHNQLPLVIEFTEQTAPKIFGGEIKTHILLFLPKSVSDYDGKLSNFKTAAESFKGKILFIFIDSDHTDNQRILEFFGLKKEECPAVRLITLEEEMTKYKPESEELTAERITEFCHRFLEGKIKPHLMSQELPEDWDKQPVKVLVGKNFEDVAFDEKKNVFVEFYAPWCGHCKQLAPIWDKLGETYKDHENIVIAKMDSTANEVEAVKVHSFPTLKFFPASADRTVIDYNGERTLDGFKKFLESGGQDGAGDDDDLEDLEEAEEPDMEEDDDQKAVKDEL
DNA dC->dU-editing enzyme APOBEC-3A, sequence (P31941 whole entry): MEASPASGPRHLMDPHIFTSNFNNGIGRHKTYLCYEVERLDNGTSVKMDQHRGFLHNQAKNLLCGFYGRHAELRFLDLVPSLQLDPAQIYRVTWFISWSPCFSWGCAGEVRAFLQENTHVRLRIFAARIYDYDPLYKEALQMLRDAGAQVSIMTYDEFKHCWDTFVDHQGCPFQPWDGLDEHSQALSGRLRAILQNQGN
Sphingosine 1-phosphate receptor 1, sequence (P21453 whole entry): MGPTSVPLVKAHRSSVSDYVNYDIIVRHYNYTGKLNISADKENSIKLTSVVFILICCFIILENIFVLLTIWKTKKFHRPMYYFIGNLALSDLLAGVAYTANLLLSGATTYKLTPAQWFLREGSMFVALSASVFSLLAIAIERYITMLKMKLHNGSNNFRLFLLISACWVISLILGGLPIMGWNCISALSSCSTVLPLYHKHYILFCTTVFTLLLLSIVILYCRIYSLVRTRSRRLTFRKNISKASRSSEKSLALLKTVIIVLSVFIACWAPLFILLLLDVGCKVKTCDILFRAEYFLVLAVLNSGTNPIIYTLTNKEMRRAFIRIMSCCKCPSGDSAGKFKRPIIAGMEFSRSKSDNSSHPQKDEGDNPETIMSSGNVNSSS
Trypsin, sequence (P00761 whole entry): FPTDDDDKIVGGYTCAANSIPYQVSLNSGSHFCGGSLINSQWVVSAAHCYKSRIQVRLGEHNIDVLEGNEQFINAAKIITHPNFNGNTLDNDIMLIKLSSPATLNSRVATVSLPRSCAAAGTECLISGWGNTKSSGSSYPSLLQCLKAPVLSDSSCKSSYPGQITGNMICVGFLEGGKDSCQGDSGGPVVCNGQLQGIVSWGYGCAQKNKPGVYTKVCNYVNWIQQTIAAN
Sphingosine 1-phosphate receptor 4, sequence (O95977 whole entry): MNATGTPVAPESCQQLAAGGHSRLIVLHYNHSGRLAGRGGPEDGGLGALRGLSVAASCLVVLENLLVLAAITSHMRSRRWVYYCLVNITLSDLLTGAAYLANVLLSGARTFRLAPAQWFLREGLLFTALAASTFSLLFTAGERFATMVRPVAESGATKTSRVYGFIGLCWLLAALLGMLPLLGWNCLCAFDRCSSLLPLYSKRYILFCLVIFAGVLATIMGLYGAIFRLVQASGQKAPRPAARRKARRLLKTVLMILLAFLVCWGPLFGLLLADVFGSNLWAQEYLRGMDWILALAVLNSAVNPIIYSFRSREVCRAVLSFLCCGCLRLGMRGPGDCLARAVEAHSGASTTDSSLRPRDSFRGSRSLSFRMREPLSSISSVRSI
Botulinum neurotoxin type A, sequence (P0DPI1 2-448 limits assumed): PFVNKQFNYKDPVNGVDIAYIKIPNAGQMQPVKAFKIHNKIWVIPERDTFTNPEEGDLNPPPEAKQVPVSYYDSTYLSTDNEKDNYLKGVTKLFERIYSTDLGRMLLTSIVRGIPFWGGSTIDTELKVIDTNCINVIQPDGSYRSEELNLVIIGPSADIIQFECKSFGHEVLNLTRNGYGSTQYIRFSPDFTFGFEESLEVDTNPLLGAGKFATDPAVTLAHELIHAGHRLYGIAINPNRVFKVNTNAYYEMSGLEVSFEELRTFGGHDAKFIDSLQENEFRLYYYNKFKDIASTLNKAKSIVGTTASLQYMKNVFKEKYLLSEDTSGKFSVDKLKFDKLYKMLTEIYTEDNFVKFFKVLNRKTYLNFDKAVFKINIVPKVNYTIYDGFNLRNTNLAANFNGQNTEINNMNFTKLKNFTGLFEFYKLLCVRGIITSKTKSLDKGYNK

For orientation: AC50 means the concentration at which the activity in the assay is half-maximal. As to `CCOc1cc(S(=O)(=O)N(Cc2ccccc2)Cc2ccccc2)c(OCC)cc1-n1cnnn1`, the AC50 in test [1] was 1.45 µM (active); in test [2], 34 µM (active); in test [3] it was 15.8 µM (inconclusive); in [4] it was 35.6 µM (active); in test [5], 16.8 µM (active).
For `CS(=O)(=O)c1nc(-c2ccccc2)cc(C(F)(F)F)n1`, the CC50 in test [6] is 30.7 µM (active). Further, the EC50 is 8.84 µM (inconclusive) in [7]; 4.8 µM (active) in test [9]; 2.55 µM (active) in test [12]; 5.53 µM (active) in test [16]; 4.36 µM (active) in [18]; 2.21 µM (active) in test [19]. For the same molecule, the IC50 was 29.1 µM (inactive) in [8], 16.7 µM (not active) in test [15], 3.23 µM (active) in test [17] and 1.09 µM (active) in test [20]. The half-maximal activity concentration (AC50) in [10] was 1.53 µM (active); in test [11] it was 16 µM (active); in [14], 7.07 µM (active); in test [21] it was 4.91 µM (active). For the same molecule, the “Absolute IC50 (CHOP)” value in test [13] is 10 µM.
On to `Cc1cc(C(=O)N2CCCC(NS(C)(=O)=O)C2)c(C)n1Cc1ccccc1` (stereo not given), for which the IC50 in [22] and in test [23] was > 99 µM (inactive) in each case.
For the molecule `COc1ccc(OC)c(-c2nc3cc4ccccc4cc3nc2-c2ccccc2)c1`, the EC50 in [24] is 17.9 µM (active).
Regarding `COc1ccc(C(=O)Nc2ccccc2C(=O)NCc2ccco2)cc1`, the half-maximal activity concentration (AC50) in test [25] is 0.819 µM (active).
